We go through 12 molecules from US10472356B2, “Bicyclic ketone sulfonamide compounds” (AMGEN INC., priority 2015, dated 2019).

Format in all cases: cell-based
In assay [1] the target is T1, human Nav1.7 (Homo sapiens, UniProt Q15858).
T1 construct: expressed in transfected cells; host or cells: HEK293
Briefly: Nav 1.7 IWQ In Vitro Assay (IonWorks Quattro). Conditions: HEK293 cells stably transfected with human Nav 1.7; IonWorks Quattro population patch-clamp; 26th pulse to −20 mV, 5 Hz; cells unclamped 5 to 8 minutes with compound; read-out: hNav1.7 IWQ IC50. The gist of the method:
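Population patch clamp on HEK293 cells stably expressing human Nav 1.7: held at −110 mV for three seconds, then 26 pulses of 150 msec to −20 mV at 5 Hz, before and after 5-8 min with one compound concentration. Percent inhibition from peak current at the 26th pulse.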

Assay [2] deals with T1, human Nav1.7. The assay is described as follows: Nav 1.7 IWB In Vitro Assay (IonWorks Barracuda). The conditions noted are these: HEK293 cells stably transfected with human Nav 1.7; IonWorks Barracuda population patch-clamp; cells clamped to −20 mV for 4 minutes with compound; 26th pulse; read-out: hNav1.7 IWB IC50. An outline of the steps: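 IC50 derived from concentration-response of percent block of the 26th-pulse peak inward current, compound vs none. Protocol: stable human Nav 1.7 HEK293 cells on automated population patch clamp, held at −110 mV, 5 Hz train of 150 ms steps to −20 mV, 4 min compound exposure depolarized at −20 mV, 3 s repolarization, train repeated.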
On the technique in general: The patch-clamp technique gives a direct electrical read-out from membranes.

Assay [3] deals with T1, human Nav1.7. The assay is described as follows: Nav 1.7 In Vitro PatchXpress (PX) Assay. The conditions noted are these: HEK 293 cells stably transfected with human Nav1.7; PatchXpress whole cell voltage clamp; partially inactivated state (holding potential yielding 20 to 50% inactivation); read-out: hNav1.7 PX IC50. An outline of the steps:
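Percent inhibition of peak sodium current taken after 3 min exposure to one compound concentration, 3–5 cells each, with IC50 curve fits. Partially inactivated channels (20–50% inactivation at holding potential) in Nav1.7-HEK 293 cells, activated by 20 ms steps to −10 mV every 10 s.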

A word on the IC50: it is the concentration that gives 50% inhibition.

T1 sequence (Q15858 whole entry): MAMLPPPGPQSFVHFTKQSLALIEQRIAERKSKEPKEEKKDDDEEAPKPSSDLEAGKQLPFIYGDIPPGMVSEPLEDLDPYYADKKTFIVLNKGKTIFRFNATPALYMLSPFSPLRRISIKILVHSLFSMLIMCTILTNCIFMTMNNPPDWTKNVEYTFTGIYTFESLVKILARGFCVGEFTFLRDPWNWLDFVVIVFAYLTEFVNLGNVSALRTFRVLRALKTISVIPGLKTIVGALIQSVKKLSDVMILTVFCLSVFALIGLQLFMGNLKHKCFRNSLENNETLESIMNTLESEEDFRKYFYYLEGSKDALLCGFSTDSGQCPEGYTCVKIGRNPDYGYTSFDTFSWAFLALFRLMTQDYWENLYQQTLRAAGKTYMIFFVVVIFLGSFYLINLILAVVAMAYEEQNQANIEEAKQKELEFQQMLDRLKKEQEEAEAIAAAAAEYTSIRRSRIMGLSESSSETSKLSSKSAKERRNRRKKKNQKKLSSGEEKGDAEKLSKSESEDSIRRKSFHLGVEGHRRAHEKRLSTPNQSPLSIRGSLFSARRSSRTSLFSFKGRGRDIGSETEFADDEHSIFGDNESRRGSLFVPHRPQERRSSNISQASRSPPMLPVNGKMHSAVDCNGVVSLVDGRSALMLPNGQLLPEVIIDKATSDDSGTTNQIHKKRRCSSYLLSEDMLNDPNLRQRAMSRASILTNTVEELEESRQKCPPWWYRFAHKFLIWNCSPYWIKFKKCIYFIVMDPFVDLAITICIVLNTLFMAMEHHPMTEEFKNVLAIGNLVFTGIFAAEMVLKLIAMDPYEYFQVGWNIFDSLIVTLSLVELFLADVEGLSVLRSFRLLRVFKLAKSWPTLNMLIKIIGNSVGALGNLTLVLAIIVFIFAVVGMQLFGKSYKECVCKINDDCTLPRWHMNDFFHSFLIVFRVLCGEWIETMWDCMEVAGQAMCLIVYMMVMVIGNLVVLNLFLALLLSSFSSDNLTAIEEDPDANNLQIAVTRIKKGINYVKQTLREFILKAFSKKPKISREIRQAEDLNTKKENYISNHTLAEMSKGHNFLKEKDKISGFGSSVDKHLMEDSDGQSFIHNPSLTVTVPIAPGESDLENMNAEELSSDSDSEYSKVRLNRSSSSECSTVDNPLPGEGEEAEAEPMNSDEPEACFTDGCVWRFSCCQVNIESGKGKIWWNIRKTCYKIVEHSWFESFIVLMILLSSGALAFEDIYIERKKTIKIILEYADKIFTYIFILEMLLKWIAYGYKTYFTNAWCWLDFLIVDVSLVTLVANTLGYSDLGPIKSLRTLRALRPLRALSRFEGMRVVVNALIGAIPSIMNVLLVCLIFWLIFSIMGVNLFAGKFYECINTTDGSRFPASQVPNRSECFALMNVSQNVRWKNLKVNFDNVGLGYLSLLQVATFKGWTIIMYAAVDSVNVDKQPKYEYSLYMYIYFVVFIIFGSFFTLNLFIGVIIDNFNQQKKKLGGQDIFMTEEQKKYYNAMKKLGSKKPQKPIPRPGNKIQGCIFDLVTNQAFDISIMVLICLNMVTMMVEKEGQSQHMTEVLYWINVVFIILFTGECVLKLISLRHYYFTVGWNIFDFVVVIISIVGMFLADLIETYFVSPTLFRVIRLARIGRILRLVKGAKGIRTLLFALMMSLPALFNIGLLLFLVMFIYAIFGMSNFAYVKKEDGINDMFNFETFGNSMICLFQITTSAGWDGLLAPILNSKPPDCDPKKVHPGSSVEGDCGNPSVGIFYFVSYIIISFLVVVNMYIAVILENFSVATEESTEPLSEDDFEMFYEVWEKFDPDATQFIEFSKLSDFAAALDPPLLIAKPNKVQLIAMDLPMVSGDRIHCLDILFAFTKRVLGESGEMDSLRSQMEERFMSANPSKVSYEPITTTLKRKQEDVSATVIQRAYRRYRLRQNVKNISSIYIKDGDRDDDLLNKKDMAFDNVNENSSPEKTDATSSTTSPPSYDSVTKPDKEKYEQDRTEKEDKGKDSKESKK

Turning to `COc1cc(-c2cc(OC)c(-n3c4c(ccc3=O)CN(S(=O)(=O)Nc3ccon3)CC4)cc2F)ccc1Cl` (racemic) [Example 15-(Rac), (Rac)-1-(4′-chloro-2-fluoro-3′,5-dimethoxy-4-biphenylyl)-N-3-isoxazolyl-2-oxo-1,5,7,8-tetrahydro-1,6-naphthyridine-6(2H)-sulfonamide], the IC50 in assay [1] amounted to 121 nM; in assay [2] it was 8.1 nM; in assay [3], 21.8 nM.

As to `COc1cc(-c2ccc(Cl)c(C)c2)c(F)cc1-n1c2c(ccc1=O)CN(S(=O)(=O)Nc1cccnn1)CC2` (racemic) [Example 33-(Rac), (Rac)-1-(4′-chloro-2-fluoro-5-methoxy-3′-methyl-4-biphenylyl)-2-oxo-N-3-pyridazinyl-1,5,7,8-tetrahydro-1,6-naphthyridine-6(2H)-sulfonamide], the IC50 in assay [1] was 19.6 nM; in assay [2], 26.1 nM; in assay [3] it was 53.3 nM.

`COc1cc(-c2cc(F)cc(Cl)c2)c(F)cc1-n1c2c(ccc1=O)CN(S(=O)(=O)Nc1ccon1)CC2` (racemic) [Example 18-(Rac), (Rac)-1-(3′-chloro-2,5′-difluoro-5-methoxy-4-biphenylyl)-N-3-isoxazolyl-2-oxo-1,5,7,8-tetrahydro-1,6-naphthyridine-6(2H)-sulfonamide]: the IC50 in assay [1] was 4.3 nM; in assay [2], 6.9 nM; in assay [3], 39.9 nM.

For `COc1cc(-c2cc(Cl)cc(OC(F)(F)F)c2)c(F)cc1-n1c2c(ccc1=O)CN(S(=O)(=O)Nc1cccnn1)CC2` [Example 77, P-1-(3′-chloro-2-fluoro-5-methoxy-5′-(trifluoromethoxy)-[1,1′-biphenyl]-4-yl)-2-oxo-N-(pyridazin-3-yl)-1,2,7,8-tetrahydro-1,6-naphthyridine-6(5H)-sulfonamide], the IC50 in assay [1] is 1.3 nM; in assay [2], 4.4 nM; in assay [3] it was 40.5 nM.

Take `COc1cc(-c2cc(F)cc(F)c2)c(F)cc1-n1c2c(ccc1=O)CN(S(=O)(=O)Nc1cccc(F)n1)CC2` (racemic) [Example 14-(Rac), (Rac)-N-(6-fluoro-2-pyridinyl)-2-oxo-1-(2,3′,5′-trifluoro-5-methoxy-4-biphenylyl)-1,5,7,8-tetrahydro-1,6-naphthyridine-6(2H)-sulfonamide]: the values for the IC50 in assay [1], in assay [2] and in assay [3] were 44.4 nM, 25.6 nM and 74.2 nM, respectively.

Consider `COc1cc(C#CC2CCCC2)c(F)cc1-n1c2c(ccc1=O)CN(S(=O)(=O)Nc1ccon1)CC2` (single isomer, unassigned) [Example 34-P, P-1-(4-(cyclopentylethynyl)-5-fluoro-2-methoxyphenyl)-N-3-isoxazolyl-2-oxo-1,5,7,8-tetrahydro-1,6-naphthyridine-6(2H)-sulfonamide], for which the values for the IC50 in assay [1], in assay [2] and in assay [3] were 9.2 nM, 12.2 nM and 192 nM, respectively.

For the molecule `COc1cc(-c2ccc(F)c(F)c2)c(F)cc1-n1c2c(ccc1=O)CN(S(=O)(=O)Nc1ccon1)CC2` (racemic) [Example 20-(Rac), (Rac)-N-3-isoxazolyl-2-oxo-1-(2,3′,4′-trifluoro-5-methoxy-4-biphenylyl)-1,5,7,8-tetrahydro-1,6-naphthyridine-6(2H)-sulfonamide], the IC50 in assay [1] amounted to 6.7 nM; in assay [2] it was 31.5 nM; in assay [3], 159 nM.

Turning to `COc1cc(-c2cc(F)cc(Cl)c2)c(F)cc1-n1c2c(ccc1=O)CN(S(=O)(=O)Nc1ccc(F)cn1)CC2` (racemic) [Example 12-(Rac), (Rac)-1-(3′-chloro-2,5′-difluoro-5-methoxy-4-biphenylyl)-N-(5-fluoro-2-pyridinyl)-2-oxo-1,5,7,8-tetrahydro-1,6-naphthyridine-6(2H)-sulfonamide], the IC50 in assay [1] was 81.5 nM; in assay [2] it was 91.3 nM; in assay [3], 106 nM.

In the case of `COc1cc(-c2ccc(C)c(F)c2)c(F)cc1-n1c2c(ccc1=O)CN(S(=O)(=O)Nc1ccon1)CC2` (racemic) [Example 21-(Rac), (Rac)-1-(2,3′-difluoro-5-methoxy-4′-methyl-4-biphenylyl)-N-3-isoxazolyl-2-oxo-1,5,7,8-tetrahydro-1,6-naphthyridine-6(2H)-sulfonamide], the values for the IC50 in assay [1], in assay [2] and in assay [3] were 14.3 nM, 17.8 nM and 91.3 nM, respectively.

Regarding `COc1cc(-c2cc(F)cc(Cl)c2)ccc1-n1c2c(ccc1=O)CN(S(=O)(=O)Nc1ccon1)CC2` (single isomer, unassigned) [Example 7-P, P-1-(3′-chloro-5′-fluoro-3-methoxy-4-biphenylyl)-N-3-isoxazolyl-2-oxo-1,5,7,8-tetrahydro-1,6-naphthyridine-6(2H)-sulfonamide], the IC50 in assay [1] came to 7.8 nM; in assay [2] it was 14.3 nM; in assay [3] it was 76.3 nM.

As for `COc1cc(-c2cccc(OCC(F)(F)F)c2)c(F)cc1-n1c2c(ccc1=O)CN(S(=O)(=O)Nc1cccnn1)CC2` [Example 68, P-1-(2-fluoro-5-methoxy-3′-(2,2,2-trifluoroethoxy)-[1,1′-biphenyl]-4-yl)-2-oxo-N-(pyridazin-3-yl)-1,2,7,8-tetrahydro-1,6-naphthyridine-6(5H)-sulfonamide], the IC50 turned out to be 2.4 nM in assay [1], 5.3 nM in assay [2] and 74.2 nM in assay [3].

As for `COc1cc(-c2cc(OC)c(-n3c4c(ccc3=O)CN(S(=O)(=O)Nc3ccon3)CC4)cc2F)ccc1C` (racemic) [Example 58-(Rac), (Rac)-1-(2-fluoro-3′,5-dimethoxy-4′-methyl-4-biphenylyl)-N-3-isoxazolyl-2-oxo-1,5,7,8-tetrahydro-1,6-naphthyridine-6(2H)-sulfonamide], the IC50 in assay [1] stood at 12.3 nM; in assay [2], 24.1 nM; in assay [3], 78 nM.
